Measured values as given in US20210379106A1, “OXABICYCLOHEPTANES FOR ENHANCING CAR T CELL FUNCTION” (Lixte Biotechnology, Inc., priority 2018, published 2021).

Experiments:
PP2A = PP2A (Homo sapiens, UniProt P67775); details: cited from earlier work
[1] = test system: cell lines from a variety of human solid tumors; details: cited from earlier work
CD19 CAR T cells = test: IFNγ intracellular staining / flow cytometry of CD19CAR T cells after co-culture with CD19+ tumor cells; assay type: cell-based; details: for percentage of CAR+/CD8+/INFγ+: 0.5 μM LB-100, 1.0 μg/mL Nivo
Protocol: FIG. 1. Generation of CD19 CAR T cells PBMC from healthy donor were activated with CD3/CD28 beads and transduced with lentivirus encoding second generation of CD19CAR containing costimulatory signaling CD28. After 14 days of ex vivo expansion, percentages of CD8 and CAR positive T cells were determined by flow cytometry.
FIG. 2. […] Post treatment, 0.1×10^6 CD19 CART cells were then co-cultured with 0.1×10^6 different CD19+ tumor cells for 24 hours followed by surface staining of CAR and CD8 and intracellular staining of IFN-γ. Percentages of IFNγ+CD8+ CAR T cells in gated CAR positive population are presented.
FIG. 3. […] Post treatment, 0.1×10^6 CD19CAR T cells were then co-cultured with 0.1×10^6 CD19+Daudi lymphoma cells for 24 hours followed by surface staining of CAR and CD8 and intracellular staining of IFN-γ. Percentages of IFN-γ+CD8+ CAR T cells (A) and FACS plots (B) in gated CAR positive population are presented.
FIG. 4. […] Post treatment, 0.1×10^6 CD19CAR T cells were then co-cultured with 0.1×10^6 different CD19+ tumor cells for 24 hours followed by surface staining of CAR and CD8 and intracellular staining of IFN-γ. Myeloid leukemic cells (KG1a) were used as negative control. Percentages of IFN-γ+CD8+ CAR T cells in gated CAR positive population are presented.
We assessed the effects of LB-100 and Nivo on CD19 CART cell function. Propagated CD19CAR T cells were stimulated with dynal beads coated with antibody against CD19 (FMC63) at 1:1 ratio for five days and cultured under the following conditions: CD19CAR T cell alone, CD19CAR+ 0.5 μM LB-100, CD19CAR+ 1.0 μg/mL Nivo, and CD19CAR with combination of LB-100 and Nivo. Drugs were supplemented into the culture every other day. Functional assay was performed six days after treatment. The cells were then co-cultured with the different CD19+ ALL cells SupB15 and different lymphoma Daudi and Raji cells overnight. Cells were then stained for Interferon-gamma (IFNγ) followed by flow cytometry analysis. Acute myeloid leukemia (AML) cells KG1a were used as negative controls. […] To test the antitumor activity of the combinatorial therapy in vivo we established an acute lymphoid leukemia (ALL) model by inoculating SupB15-GFP-ffluc cells into NSG mice, 5 days after tumor engraftment, mice were treated with CD19CAR T cells by intravenous injection, along with intraperitoneally injections of LB100 (4 μg/mouse), Nivo (200 μgm/mouse) or LB100+Nivo every other day as combination therapy.

solid tumor = details: largest phase 1 trial, cited from earlier work

Sequence of PP2A (P67775 whole entry): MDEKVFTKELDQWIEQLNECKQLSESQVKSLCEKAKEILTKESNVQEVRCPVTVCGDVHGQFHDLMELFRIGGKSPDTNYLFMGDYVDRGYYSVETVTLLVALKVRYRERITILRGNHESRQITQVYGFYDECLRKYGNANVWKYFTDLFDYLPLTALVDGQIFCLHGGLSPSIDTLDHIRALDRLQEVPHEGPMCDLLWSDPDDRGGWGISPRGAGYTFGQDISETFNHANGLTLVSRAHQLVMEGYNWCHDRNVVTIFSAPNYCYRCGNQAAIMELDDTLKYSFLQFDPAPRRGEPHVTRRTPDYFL

O=C1OC(=O)[C@H]2[C@@H]1[C@@H]1CC[C@H]2O1 [norcantharidin]
inhibition of PP2A (PP2A): potent inhibitorsof PP2A

CCN1CCCC1CNC(=O)c1cc(S(=O)(=O)CC)c(NC)cc1OC (stereo not shown) [LB-102]
proliferation of cell lines [1]: inhibit proliferation

CN1CCN(C(=O)C2C(C(=O)O)[C@H]3CC[C@@H]2O3)CC1 (stereo partly shown) [LB-100]
inhibition of PP2A (PP2A): potent inhibitor of PP2A | proliferation of cell lines [1]: inhibit proliferation | effector function of CD19CAR T cells (IFNγ+CD8+ CAR T cells) (CD19 CAR T cells; FIG. 2, CD19 antibody coated beads, different concentrations of LB100 on days 1, 3 and 5, different CD19+ tumor cells 24 hours): improves effector function of CD19CAR T cells in a dose dependent manner | percentage of CAR+/CD8+/INFγ+ (CD19 CAR T cells; co-cultured with Daudi cells overnight, CD19 antibody bead stimulation): 10.99% | percentage of CAR+/CD8+/INFγ+ (CD19 CAR T cells; co-cultured with Raji cells overnight, CD19 antibody bead stimulation): 10.30% | percentage of CAR+/CD8+/INFγ+ (CD19 CAR T cells; co-cultured with SupB15 cells overnight, CD19 antibody bead stimulation): 10.14% | percentage of CAR+/CD8+/INFγ+ (CD19 CAR T cells; corresponding treatment, co-cultured with KG1A AML cells (negative control)): 6.33% | percentage of CAR+/CD8+/INFγ+ (CD19 CAR T cells; corresponding treatment, media alone (no tumor cells)): 7.28%

C[C@@]12C(=O)OC(=O)[C@]1(C)[C@H]1CC[C@@H]2O1 [Cantharidin]
inhibition of PP2A (PP2A): potent inhibitor of PP2A

C[C@@](O)(/C=C/[C@H]1CC=CC(=O)O1)[C@@H](C[C@@H](O)\C=C/C=C\C=C\CO)OP(=O)(O)O [fostriecin, Fostriecin]
dose-limiting toxicity (DLT) (solid tumor; 46 solid tumor patients): without dose-limiting toxicity | disease stability, share of solid tumor patients (solid tumor; 16 of 46 patients): 34.8%
